Results taken from patent publication US8557833B2, “Aminopyrimidines useful as kinase inhibitors” (priority 2005, dated 2013).
Like-named read-outs stand apart in the source and are kept apart here.

Experiments:
Aurora-2 (Aurora A) = target: T1, Aurora-2 (Aurora A) (Homo sapiens, UniProt O14965); assay: Aurora-2 (Aurora A) inhibition assay, coupled enzyme; type: biochemical
T1 sequence (O14965 1-403): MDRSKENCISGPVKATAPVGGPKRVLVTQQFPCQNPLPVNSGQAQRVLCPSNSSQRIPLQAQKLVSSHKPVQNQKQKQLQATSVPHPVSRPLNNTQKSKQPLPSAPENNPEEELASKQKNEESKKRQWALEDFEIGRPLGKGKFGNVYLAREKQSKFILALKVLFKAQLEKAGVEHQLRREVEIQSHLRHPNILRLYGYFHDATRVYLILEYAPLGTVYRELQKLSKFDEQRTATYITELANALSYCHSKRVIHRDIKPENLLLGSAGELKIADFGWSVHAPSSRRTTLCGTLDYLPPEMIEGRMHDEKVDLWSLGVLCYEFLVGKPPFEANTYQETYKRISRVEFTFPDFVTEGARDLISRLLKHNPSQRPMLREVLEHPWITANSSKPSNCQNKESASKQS
Experimental: Assays were carried out in a mixture of 100 mM Hepes (pH7.5), 10 mM MgCl2, 1 mM DTT, 25 mM NaCl, 2.5 mM phosphoenolpyruvate, 300 μM NADH, 30 μg/ml pyruvate kinase and 10 μg/ml lactate dehydrogenase. […] Assays were carried out at 30° C. and in the presence of 40 nM Aurora-2.
An assay stock buffer solution was prepared containing all of the reagents listed above, with the exception of Aurora-2 and the test compound of interest. […] The plate was preincubated for 10 minutes at 30° C. and the reaction initiated by addition of 10 μl of Aurora-2. Initial reaction rates were determined with a Molecular Devices SpectraMax Plus plate reader over a 10 minute time course. IC50 and Ki data were calculated from non-linear regression analysis using the Prism software package (GraphPad Prism version 3.0cx for Macintosh, GraphPad Software, San Diego Calif., USA).

Aurora-1 (Aurora B) = Aurora-1 (Aurora B) (Homo sapiens, UniProt Q96GD4); assay: Aurora-1 (Aurora B) inhibition assay (radiometric); type: biochemical
Chain of Aurora-1 (Aurora B) (Q96GD4 whole entry): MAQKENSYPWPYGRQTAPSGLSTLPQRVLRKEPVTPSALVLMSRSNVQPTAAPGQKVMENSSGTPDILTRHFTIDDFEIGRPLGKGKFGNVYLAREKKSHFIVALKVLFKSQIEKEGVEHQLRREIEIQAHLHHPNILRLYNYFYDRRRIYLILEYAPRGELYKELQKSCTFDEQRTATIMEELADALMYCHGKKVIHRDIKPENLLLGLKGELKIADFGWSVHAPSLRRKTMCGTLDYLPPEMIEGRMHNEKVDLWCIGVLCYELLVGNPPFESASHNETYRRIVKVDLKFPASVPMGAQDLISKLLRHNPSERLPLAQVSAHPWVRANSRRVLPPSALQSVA
Experimental: An assay buffer solution was prepared which consisted of 25 mM HEPES (pH 7.5), 10 mM MgCl2, 0.1% BSA and 10% glycerol. […] To 22 μL of the Aurora-B solution, in a 96-well plate, was added 2 μl of a compound stock solution in DMSO and the mixture allowed to equilibrate for 10 minutes at 25° C. The enzyme reaction was initiated by the addition of 16 μl stock [γ-^33P]-ATP solution (˜20 nCi/μL) prepared in assay buffer, to a final assay concentration of 800 μM. The reaction was stopped after 3 hours by the addition of 16 μL 500 mM phosphoric acid and the levels of ^33P incorporation into the peptide substrate were determined by the following method.
A phosphocellulose 96-well plate (Millipore, Cat no. MAPHNOB50) was pre-treated with 100 μL of a 100 mM phosphoric acid prior to the addition of the enzyme reaction mixture (40 μL). The solution was left to soak on to the phosphocellulose membrane for 30 minutes and the plate subsequently washed four times with 200 μL of a 100 mM phosphoric acid. […] Levels of non-enzyme catalyzed background radioactivity were determined by adding 16 μL of the 500 mM phosphoric acid to control wells, containing all assay components (which acts to denature the enzyme), prior to the addition of the [γ-^33P]-ATP solution. Levels of enzyme catalyzed ^33P incorporation were calculated by subtracting mean background counts from those measured at each inhibitor concentration. […] Ki values were calculated from initial rate data by non-linear regression using the Prism software package (Prism 3.0, Graphpad Software, San Diego, Calif.).

[1] = Microsomal stability assay; type: in vitro ADME; conditions: 5 μM compound, 1 mg/mL liver microsome protein, 37° C., species not given
Experimental: Microsomal stability was monitored by generation of depletion-time profiles in microsomes from a range of species (male CD-1 mouse, male Sprague-Dawley rat, male Beagle dog, male Cynomolgus monkey and pooled mixed gender human). Compound spiking solutions were made up by diluting down the compound stock solution in DMSO (typically 10 mM) to give a solution in acetonitrile (0.5 mM). […].
The reaction was initiated by the addition (250 μL) of the pre-incubated RGS to the pre-incubated microsome/VRT/PB mixture (pre-incubation in both instances was for 10 minutes at 37° C.). Samples were incubated within Eppendorf vials (1.5 ml) on a heater shaker (DPC Micromix 5 (settings; form 20, amplitude 4) modified to be heated, to 37° C., by two plate heaters fixed to the deck and controlled by a Packard Manual Heater) attached to a Multiprobe II HT Ex automated liquid handler. The liquid handler was programmed (WinPREP software) to sample the microsomal incubation mixture after 0, 2, 10, 30 and 60 minutes of incubation and transfer an aliquot (100 μL) to a stop block (96-well block) containing 100 μL of chilled methanol. The % organic in the stop mixture was optimized for analysis by addition of appropriate volumes of aqueous/organic (typically 100 μl of 50:50 methanol:water).
Prior to analysis the stop block was placed on a shaker (DPC Micromix 5; 10 min, form 20, amplitude 5) to precipitate out proteins. The block was then centrifuged (Jouan GR412; 2000 rpm, 15 min, 4° C.). A sample aliquot (200 μL) was then transferred to an analysis block and the block was centrifuged again (Jouan GR412; 2000 rpm, 5 min, 4° C.) prior to being sent for analysis. Depletion profiles were determined by monitoring the disappearance of VRT by liquid chromatography-tandem mass spectrometry (LC-MS/MS). Samples were injected (20 μL; Agilent 1100 liquid chromatographic system equipped with autosampler) onto an analytical column. Mobile phase consisted of Water+0.05% (v/v) formic acid (A) and methanol+0.05% (v/v) formic acid (B).
Running a gradient method optimized for the compound of interest carried out the compound elution from analytical column. The total run time was 6 minutes with a flow rate of 0.35 mL/min. The entire column effluent entered the electrospray ionization source (positive mode) of a Micromass Quattro LC tandem mass spectrometer between 0.5 and 5.9 min of the run. The mass spectrometry was optimized for the compound of interest. All incubations were conducted in duplicate and results were expressed as % parent remaining at either 30 minutes or 60 minutes relative to 0 minutes sample.

FLT-3 = target: T2, FLT-3 (Homo sapiens, UniProt P36888); assay: FLT-3 inhibition assay, radiometric filter-binding; type: biochemical
T2 sequence (P36888 27-993): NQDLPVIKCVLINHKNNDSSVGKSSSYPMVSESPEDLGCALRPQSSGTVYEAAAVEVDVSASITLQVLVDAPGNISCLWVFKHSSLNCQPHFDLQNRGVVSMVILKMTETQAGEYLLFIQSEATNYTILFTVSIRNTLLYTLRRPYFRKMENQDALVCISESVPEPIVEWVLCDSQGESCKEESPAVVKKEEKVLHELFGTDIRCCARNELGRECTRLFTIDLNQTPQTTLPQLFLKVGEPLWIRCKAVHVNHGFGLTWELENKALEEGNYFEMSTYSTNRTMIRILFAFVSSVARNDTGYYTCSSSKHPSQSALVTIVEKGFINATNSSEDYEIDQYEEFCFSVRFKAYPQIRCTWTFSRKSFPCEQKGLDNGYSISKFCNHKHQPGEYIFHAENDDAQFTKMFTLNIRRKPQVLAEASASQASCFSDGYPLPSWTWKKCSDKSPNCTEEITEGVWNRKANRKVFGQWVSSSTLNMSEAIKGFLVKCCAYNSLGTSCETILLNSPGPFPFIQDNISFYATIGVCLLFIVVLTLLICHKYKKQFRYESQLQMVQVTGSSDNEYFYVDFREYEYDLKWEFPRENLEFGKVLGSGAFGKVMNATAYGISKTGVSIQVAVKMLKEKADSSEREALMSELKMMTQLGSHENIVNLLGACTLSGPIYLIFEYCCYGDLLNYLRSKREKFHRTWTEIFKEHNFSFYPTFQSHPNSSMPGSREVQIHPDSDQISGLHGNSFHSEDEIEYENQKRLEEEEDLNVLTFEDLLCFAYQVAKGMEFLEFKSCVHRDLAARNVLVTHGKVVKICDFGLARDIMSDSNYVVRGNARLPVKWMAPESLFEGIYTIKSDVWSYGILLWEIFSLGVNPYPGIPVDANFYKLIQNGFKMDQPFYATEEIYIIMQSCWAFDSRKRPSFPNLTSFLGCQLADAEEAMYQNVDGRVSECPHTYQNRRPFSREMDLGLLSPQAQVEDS
Experimental: This assay monitors the 33P incorporation into a substrate poly(Glu, Tyr) 4:1 (pE4Y). […] Final substrate concentrations in the assay were 90 μM ATP and 0.5 mg/ml pE4Y (both from Sigma Chemicals, St Louis, Mo.). […] Reactions were carried out at room temperature.
Two assay solutions were prepared. Solution 1 contains 100 mM HEPES (pH 7.5), 10 mM MgCl2, 25 mM NaCl, 1 mg/ml pE4Y and […] (containing 0.3 mCi of [γ-33^P]ATP for each reaction). Solution 2 contains 100 mM HEPES (pH 7.5), 10 mM MgCl2, 25 mM NaCl, 2 mM DTT, 0.02% BSA and 3 nM FLT-3. The assay was run on a 96 well plate by mixing 50 μl each of Solution 1 and […] of the compounds of the present invention. The reaction was initiated with Solution 2. […] All of the reaction volume was then transferred to a filter plate and washed with 5% TCA by a Harvester 9600 from TOMTEC (Hamden, Conn.). The amount of ^33P incorporation into pE4y was analyzed by a Packard Top Count Microplate Scintillation Counter (Meriden, Conn.). The data was fitted using Prism software to get an IC50 or Ki.

JAK-2 = JAK-2 (Homo sapiens, UniProt O60674); assay: JAK2 inhibition assay; type: biochemical; conditions: 12 μM ATP, 15 μM poly(Glu)4Tyr
Chain of JAK-2 (O60674 whole entry, species assumed, the tested form may be a part): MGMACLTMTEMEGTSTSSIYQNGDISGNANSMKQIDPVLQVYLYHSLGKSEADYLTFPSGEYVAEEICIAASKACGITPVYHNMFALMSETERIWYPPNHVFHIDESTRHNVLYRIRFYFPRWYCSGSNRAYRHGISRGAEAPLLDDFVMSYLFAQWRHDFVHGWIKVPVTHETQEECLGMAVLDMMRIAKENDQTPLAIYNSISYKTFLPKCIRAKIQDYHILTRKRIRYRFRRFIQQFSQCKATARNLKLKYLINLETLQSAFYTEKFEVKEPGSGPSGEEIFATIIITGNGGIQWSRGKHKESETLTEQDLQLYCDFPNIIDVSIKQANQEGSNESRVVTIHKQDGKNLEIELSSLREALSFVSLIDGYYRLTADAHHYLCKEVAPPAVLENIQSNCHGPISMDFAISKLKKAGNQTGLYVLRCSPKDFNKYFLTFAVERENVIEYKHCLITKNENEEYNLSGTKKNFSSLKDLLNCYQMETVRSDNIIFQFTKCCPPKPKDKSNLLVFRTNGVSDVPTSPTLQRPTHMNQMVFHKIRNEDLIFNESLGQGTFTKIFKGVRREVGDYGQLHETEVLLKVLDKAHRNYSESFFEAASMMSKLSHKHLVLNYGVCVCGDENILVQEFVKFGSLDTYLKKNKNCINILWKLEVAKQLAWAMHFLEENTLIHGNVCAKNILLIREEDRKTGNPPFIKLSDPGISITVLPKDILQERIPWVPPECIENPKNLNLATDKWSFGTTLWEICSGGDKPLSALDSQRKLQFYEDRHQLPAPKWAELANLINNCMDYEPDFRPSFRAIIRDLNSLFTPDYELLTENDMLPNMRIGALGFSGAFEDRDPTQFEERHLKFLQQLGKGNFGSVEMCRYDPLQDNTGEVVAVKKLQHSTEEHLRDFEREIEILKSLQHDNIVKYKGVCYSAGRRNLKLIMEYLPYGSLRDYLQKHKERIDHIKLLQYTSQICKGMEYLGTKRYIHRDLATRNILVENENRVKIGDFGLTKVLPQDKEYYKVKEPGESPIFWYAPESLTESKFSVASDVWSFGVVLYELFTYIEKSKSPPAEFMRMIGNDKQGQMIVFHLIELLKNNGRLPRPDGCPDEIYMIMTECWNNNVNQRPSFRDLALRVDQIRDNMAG

[2] = target: N-terminally truncated Abl kinase; assay: Abl kinase activity inhibition assay, coupled enzyme; type: biochemical; conditions: read-out: Abl (wild) Ki; 110 μM ATP, 30° C., 21 nM Abl kinase
Chain of N-terminally truncated Abl kinase (P00519 28-1130): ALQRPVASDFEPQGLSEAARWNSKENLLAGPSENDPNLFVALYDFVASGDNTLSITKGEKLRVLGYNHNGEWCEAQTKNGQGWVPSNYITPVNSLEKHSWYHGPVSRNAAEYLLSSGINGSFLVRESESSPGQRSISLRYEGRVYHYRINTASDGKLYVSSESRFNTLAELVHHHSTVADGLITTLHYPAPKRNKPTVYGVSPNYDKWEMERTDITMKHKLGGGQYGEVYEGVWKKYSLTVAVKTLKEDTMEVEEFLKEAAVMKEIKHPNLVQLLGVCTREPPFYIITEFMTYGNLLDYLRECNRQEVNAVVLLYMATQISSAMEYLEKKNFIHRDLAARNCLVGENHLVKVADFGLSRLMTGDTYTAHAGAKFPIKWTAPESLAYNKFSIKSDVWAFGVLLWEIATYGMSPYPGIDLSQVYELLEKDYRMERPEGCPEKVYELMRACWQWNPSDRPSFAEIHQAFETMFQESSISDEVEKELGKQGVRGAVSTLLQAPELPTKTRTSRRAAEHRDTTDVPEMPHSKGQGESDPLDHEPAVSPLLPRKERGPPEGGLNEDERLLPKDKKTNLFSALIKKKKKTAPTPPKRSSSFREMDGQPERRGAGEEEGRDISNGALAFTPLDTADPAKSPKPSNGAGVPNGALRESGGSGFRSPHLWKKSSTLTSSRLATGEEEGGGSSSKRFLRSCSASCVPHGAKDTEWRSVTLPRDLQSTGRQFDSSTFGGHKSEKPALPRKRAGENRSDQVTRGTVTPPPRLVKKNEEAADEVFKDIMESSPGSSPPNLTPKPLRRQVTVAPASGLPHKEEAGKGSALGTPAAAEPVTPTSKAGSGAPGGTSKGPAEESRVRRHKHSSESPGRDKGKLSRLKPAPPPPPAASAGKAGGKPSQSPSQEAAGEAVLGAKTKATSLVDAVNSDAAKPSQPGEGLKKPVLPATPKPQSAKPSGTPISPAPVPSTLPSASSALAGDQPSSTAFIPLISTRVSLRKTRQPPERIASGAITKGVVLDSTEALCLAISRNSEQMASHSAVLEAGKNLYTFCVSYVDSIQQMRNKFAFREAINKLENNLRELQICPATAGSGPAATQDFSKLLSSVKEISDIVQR
Experimental: Final concentrations of the components of the coupled enzyme system were 2.5 mM phosphoenolpyruvate, 200 μM NADH, […] pyruvate kinase and 20 μg/ml lactate dehydrogenase.
An assay stock buffer solution was prepared containing all of the reagents listed above with the exception of ATP and the test compound of interest. […] Rates of reaction were obtained using a Molecular Devices Spectramax plate reader (Sunnyvale, Calif.) over 10 min at 30° C. The Ki values were determined from the residual rate data as a function of inhibitor concentration using nonlinear regression (Prism 3.0, Graphpad Software, San Diego, Calif.).

[3] = 800 μM ATP, Kemptide, 25° C., read-out: Aurora B Ki
[4] = 400 μM ATP, 570 μM Kemptide, 30° C., 40 nM Aurora-2, read-out: Aurora A Ki

Row | Structure (SMILES) | Ki (Aurora-2 (Aurora A)) [nM] | Ki (Aurora-1 (Aurora B)) [nM] | Microsomal Stability (% remaining after 60 min.) [1] [%] | Ki (Aurora-1 (Aurora B); [3]) [nM] | Ki (Aurora-2 (Aurora A); [4]) [nM] | Ki (FLT-3) [nM] | Ki (JAK-2) [nM] | Microsomal Stability (% remaining after 30 min.) [1] [%] | Ki (FLT-3; 90 μM ATP, 0.5 mg/ml pE4Y, room temperature, read-out: FLT-3 Ki) [nM] | Ki [2] [nM]
1 | CSc1ccccc1C(=O)Nc1ccc(Sc2nc(Nc3cc(C)[nH]n3)cc(N3CCC3)n2)cc1 [Compound I-23] | 1.4 |  |  | 6 |  |  |  |  |  | 
2 | Cc1cc(Nc2cc(N3CCC3)nc(Sc3ccc(NC(=O)c4cc(F)ccc4F)cc3)n2)[nH]n1 [Compound I-10] |  |  |  | < 25 | 1.8 |  |  |  |  | 
3 | Cc1cc(Nc2cc(N3CCC3)nc(Sc3ccc(NC(=O)c4ccccc4Cl)nc3)n2)[nH]n1 [Compound I-24] |  |  |  | 18 | 1 | 700 | 660 |  |  | 

The remaining lines, values ahead:

Row | Ki (Aurora-2 (Aurora A)) [nM] | Ki (Aurora-1 (Aurora B)) [nM] | Microsomal Stability (% remaining after 60 min.) [1] [%] | Ki (Aurora-1 (Aurora B); [3]) [nM] | Ki (Aurora-2 (Aurora A); [4]) [nM] | Ki (FLT-3) [nM] | Ki (JAK-2) [nM] | Microsomal Stability (% remaining after 30 min.) [1] [%] | Ki (FLT-3; 90 μM ATP, 0.5 mg/ml pE4Y, room temperature, read-out: FLT-3 Ki) [nM] | Ki [2] [nM] | Structure (SMILES)
4 | 0.85 | 6.5 | 69 |  |  |  |  |  |  |  | Cc1cc(Nc2cc(N3CCC3)nc(Sc3ccc(NC(=O)c4cccc(Cl)c4Cl)cc3)n2)n[nH]1 [Compound I-9]
5 |  |  | 58 | 8 | 0.6 |  | 63 | 89 |  |  | COc1cccc(C(=O)Nc2ccc(Sc3nc(Nc4cc(C)n[nH]4)cc(N4CCC4)n3)cc2)c1 [Compound I-18]
6 | 0.56 | 7.5 | 63 |  |  |  | 440 | 91 |  |  | CCc1cc(Nc2cc(N3CCC3)nc(Sc3ccc(NC(=O)c4ccccc4Cl)cc3)n2)n[nH]1 [Compound I-16]
7 |  |  | 69 | 5.1 |  |  | 41 | 102 | 250 | 35 | Cc1cc(Nc2cc(N3CCC3)nc(Sc3ccc(NC(=O)c4cccc(F)c4F)cc3)n2)[nH]n1 [Compound I-7]
